Measured values reported in publication PMC9865163, “Structural Basis of the Inhibition of L-Methionine γ-Lyase from Fusobacterium nucleatum” (International Journal of Molecular Sciences, 2023).
Structures can show the parent of a compound that is named as a salt. Where two headings read alike, the source gives them in different places. Where a SMILES comes first, the peptide text is derived from it. The star is where a group is joined. PhAc = O=C(Cc1ccccc1)*

What was measured:
Fn1419 [1] = target: T1, Fn1419 (Fusobacterium nucleatum subsp. nucleatum, UniProt Q8RDT4); assay type: biochemical
T1 construct: Fn1419 (GeneBank: AAL95612.1, residues 1–395); His-tag (N); made in house; host or cells: E. coli BL21 (DE3)
T1 sequence (Q8RDT4 whole entry, the tested form may be a part): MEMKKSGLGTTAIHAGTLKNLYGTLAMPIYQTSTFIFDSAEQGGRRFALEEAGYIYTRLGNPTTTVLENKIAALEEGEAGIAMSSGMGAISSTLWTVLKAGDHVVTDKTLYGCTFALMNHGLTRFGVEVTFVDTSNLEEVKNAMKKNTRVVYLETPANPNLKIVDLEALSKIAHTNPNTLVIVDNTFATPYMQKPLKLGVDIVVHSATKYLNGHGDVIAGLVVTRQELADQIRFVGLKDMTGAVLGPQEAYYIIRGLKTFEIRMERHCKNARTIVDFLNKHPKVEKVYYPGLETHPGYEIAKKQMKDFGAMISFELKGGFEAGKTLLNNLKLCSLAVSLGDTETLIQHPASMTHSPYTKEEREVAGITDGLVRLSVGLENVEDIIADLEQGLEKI
Description: MGL^Cys activity of Fn1419 was measured as previously reported. Fn1419 (5.75 nM) in assay buffer (40 mM potassium phosphate, pH 7.6, and 10 μM PLP) was mixed with various concentrations of L-cysteine (25, 50, 100, 200, 400, 800, or 1000 μM) and incubated for 15 min at 37 °C. H2S, the reaction product, was then detected based on methylene blue formation. Specifically, 100 μL of solution A (the enzyme reaction solution), 20 μL of solution B (20 mM N′,N′-dimethyl-p-phenylenediamine dihydrochloride and 7.2 M HCl), and 20 μL of solution C (30 mM FeCl3 and 1.2 M HCl) were mixed, and the mixture incubated for 30 min at room temperature.
(§1) Then, 500 μM L-cysteine was added, and the reaction was allowed to proceed for 5 min at 37 °C. The amount of produced H2S was detected indirectly, based on the formation of methylene blue. The reaction mixture consisted of solution A (100 μL), solution B (20 μL), and solution C (20 μL) (the solution composition is described at the enzyme assays) and was incubated for 30 min at 20 °C. The amount of generated methylene blue was detected at 670 nm, using a SpectraMax 190 Microplate Reader (Molecular Devices, San Jose, CA, USA) at 25 °C.

[2] = in vivo; cited from earlier work
[3] = not told; cited from earlier work
Fn1419 [4] = target: T1, Fn1419; test: IC50 determination on MGL^Cys activity of Fn1419; assay type: biochemical
Description: as §1
The concentration of the enzyme was 5.75 nM and the concentration of the six above-mentioned compounds was 500 μM. IC50 values were eventually calculated from non-linear regression curves fitted.

Fn1055 = test: Inhibitory effect of gallic acid on H2S production of Fn1055; assay type: biochemical, Fusobacterium nucleatum; conditions: 500 μM gallic acid, 5.75 nM enzyme
Description: as §1

Fn1220 = test: Inhibitory effect of gallic acid on H2S production of Fn1220; assay type: biochemical, Fusobacterium nucleatum; conditions: 500 μM gallic acid, 5.75 nM enzyme
Description: as §1

E. coli = E. coli strains; cited from earlier work
Mannheimia haemolytica = Mannheimia haemolytica strains; cited from earlier work
Pasteurella multocida = Pasteurella multocida strains; cited from earlier work
[5] = test system: antibiotic-resistant S. aureus; conditions: antibiotic-resistant S. aureus strains; cited from earlier work
[6] = 100 μM compound, 5.75 nM Fn1419, 500 μM L-cysteine
[7] = 5.75 nM enzyme, preincubation 20 min at 20 °C, read-out: IC50 (Fn1419 MGL^Cys activity)

N[C@@H](Cc1c[nH]c2ccc(O)cc12)C(=O)O [5-hydroxyl tryptophan]
product increase rate (MGL^Cys activity of Fn1419 enhanced) (Fn1419 [1]; [6]): 53.0%

O=C(O)C1(O)C[C@@H](O)C(O)[C@H](O)C1 (stereo partly drawn) [D-quinic acid]
product increase rate (MGL^Cys activity of Fn1419 enhanced) (Fn1419 [1]; [6]): 35.1%

O.O.O.O.O.OC[C@H]1O[C@H](OC[C@H]2O[C@H](O[C@]3(CO)O[C@H](CO)[C@@H](O)[C@@H]3O)[C@H](O)[C@@H](O)[C@@H]2O)[C@H](O)[C@@H](O)[C@H]1O [D-raffinose pentahydrate]
product increase rate (MGL^Cys activity of Fn1419 enhanced) (Fn1419 [1]; [6]): 72.5%

NCCCC(=O)O [GABA]
product increase rate (MGL^Cys activity of Fn1419 enhanced) (Fn1419 [1]; [6]): 9.9%

C[N+](C)(C)C[C@H](O)CC(=O)[O-] [L-carnitine]
effect on MGL^Cys enzyme activity of Fn1419 (in words) (Fn1419 [1]; [6]): did not significantly affect enzyme activity

N[C@@H](CCC(=O)O)C(=O)O [L-glutamate]
effect on MGL^Cys enzyme activity of Fn1419 (in words) (Fn1419 [1]; [6]): did not significantly affect enzyme activity

COc1cc2c(cc1OC)[C@@H]1Cc3ccc(OC)c(OC)c3CN1CC2 [L-tetrahydropal matrine]
product increase rate (MGL^Cys activity of Fn1419 enhanced) (Fn1419 [1]; [6]): 71.7%

CC(=O)N[C@@H](CS)C(=O)O [N-acetyl-cysteine]
product reduction rate (MGL^Cys activity of Fn1419) (Fn1419 [1]; [6]): 12%

CC(=O)O[C@H](CC(=O)O)C[N+](C)(C)C.[Cl-] [acetyl L-carnitine HCl]
effect on MGL^Cys enzyme activity of Fn1419 (in words) (Fn1419 [1]; [6]): not significantly affected

O=c1cc(-c2ccc(O)cc2)oc2cc(O)cc(O)c12 [apigenin]
effect on MGL^Cys enzyme activity of Fn1419 (in words) (Fn1419 [1]; [6]): not significantly affected

C[N+](C)(C)CC(=O)O [betaine-HCl]
product increase rate (MGL^Cys activity of Fn1419 enhanced) (Fn1419 [1]; [6]): 24%

O=C(/C=C/c1ccc(O)c(O)c1)O[C@@H]1C[C@](O)(C(=O)O)C[C@@H](O)[C@H]1O [chlorogenic acid]
effect on MGL^Cys enzyme activity of Fn1419 (in words) (Fn1419 [1]; [6]): did not significantly affect enzyme activity

C[N+](C)(C)CCO.O=C([O-])C(O)C(O)C(=O)O (stereo not shown) [choline bitartrate]
product increase rate (MGL^Cys activity of Fn1419 enhanced) (Fn1419 [1]): 13.3%

C[N+](C)(C)CCOP(=O)([O-])OP(=O)([O-])OC[C@H]1O[C@@H](n2ccc(N)nc2=O)[C@H](O)[C@@H]1O.[Na+] [citicoline sodium]
effect on MGL^Cys enzyme activity of Fn1419 (in words) (Fn1419 [1]; [6]): did not significantly affect enzyme activity

Nc1ncnc2c1ncn2[C@@H]1O[C@H](CO)C[C@H]1O [cordycepin]
effect on MGL^Cys enzyme activity of Fn1419 (in words) (Fn1419 [1]; [6]): did not significantly affect enzyme activity

CN(CC(=O)O)C(=N)N.O [creatine monohydrate]
product reduction rate (MGL^Cys activity of Fn1419) (Fn1419 [1]; [6]): 11.2%

COc1cc(/C=C/C(=O)CC(=O)/C=C/c2ccc(O)c(OC)c2)ccc1O [curcumin]
product reduction rate (MGL^Cys activity of Fn1419) (Fn1419 [1]; [6]): 53.9%

O=C1c2c(O)cc(O)cc2O[C@H](c2cc(O)c(O)c(O)c2)[C@H]1O [dihydromyricetin]
product reduction rate (MGL^Cys activity of Fn1419) (Fn1419 [1]; [6]): 89.5%
bioavailability [2]: poor
permeability [3]: low
IC50 (Fn1419 [4]; [7]): 23 µM

OC[C@@H](O)[C@@H](O)CO [erythritol]
product increase rate (MGL^Cys activity of Fn1419 enhanced) (Fn1419 [1]; [6]): 16.4%

CCOC(=O)c1cc(O)c(O)c(O)c1 [ethyl gallate]
product reduction rate (MGL^Cys activity of Fn1419) (Fn1419 [1]; [6]): 81.9%
IC50 (Fn1419 [4]; [7]): 517 µM

COc1cc(C(=O)O)cc(OC)c1OC [gallic acid trimethyl ether]
effect on MGL^Cys enzyme activity of Fn1419 (in words) (Fn1419 [1]; [6]): did not affect

O=C(O)c1cc(O)c(O)c(O)c1 [gallic acid]
inhibition of Fn1055 (in words) (Fn1055): did not inhibit
inhibition of Fn1220 (in words) (Fn1220): did not inhibit
product reduction rate (MGL^Cys activity of Fn1419) (Fn1419 [1]; [6]): 84.8%
growth inhibition (in words) (E. coli): strongly inhibits the growth
growth inhibition (in words) (Mannheimia haemolytica): strongly inhibits the growth
growth inhibition (in words) (Pasteurella multocida): strongly inhibits the growth
growth inhibition (in words) [5]: strongly inhibits the growth
IC50 (Fn1419 [4]): 121 µM

CN(C)CCc1ccc(O)cc1.Cl [hordenine HCl]
product increase rate (MGL^Cys activity of Fn1419 enhanced) (Fn1419 [1]; [6]): 32.1%

OCc1c[nH]c2ccccc12 [indole-3-carbinol]
effect on MGL^Cys enzyme activity of Fn1419 (in words) (Fn1419 [1]; [6]): not significantly affected

O[C@H]1[C@H](O)[C@@H](O)[C@H](O)[C@@H](O)[C@H]1O [inositol]
effect on MGL^Cys enzyme activity of Fn1419 (in words) (Fn1419 [1]; [6]): did not significantly affect enzyme activity

O=c1c(O)c(-c2ccc(O)cc2)oc2cc(O)cc(O)c12 [kaempferol]
product reduction rate (MGL^Cys activity of Fn1419) (Fn1419 [1]; [6]): 40.4%

O=C1CCC[C@@H]2[C@H]3CCCN4CCC[C@@H](CN12)[C@@H]34 [matrine]
product increase rate (MGL^Cys activity of Fn1419 enhanced) (Fn1419 [1]; [6]): 4.9%

COC(=O)c1cc(O)c(O)c(O)c1 [methyl gallate]
product reduction rate (MGL^Cys activity of Fn1419) (Fn1419 [1]; [6]): 81.5%

O=C(O)c1cccnc1 [niacin]
effect on MGL^Cys enzyme activity of Fn1419 (in words) (Fn1419 [1]): did not significantly affect enzyme activity

CCOC(=O)CNC(=O)[C@@H]1CCCN1C(=O)Cc1ccccc1 [noopept] (PhAc-Pro-Gly-OEt)
product increase rate (MGL^Cys activity of Fn1419 enhanced) (Fn1419 [1]; [6]): 21.8%

CCCCCCCC/C=C\CCCCCCCC(N)=O [oleamide]
product increase rate (MGL^Cys activity of Fn1419 enhanced) (Fn1419 [1]; [6]): 24.6%

O=C(O)/C=C/c1ccc(O)cc1 [p-coumaric, p-coumaric acid]
effect on MGL^Cys enzyme activity of Fn1419 (in words) (Fn1419 [1]; [6]): not significantly affected

Cl.NCC(CC(=O)O)c1ccccc1 (stereo not shown) [phenibut HCl]
product increase rate (MGL^Cys activity of Fn1419 enhanced) (Fn1419 [1]; [6]): 61.8%

NC(=O)CN1CC(c2ccccc2)CC1=O (stereo not shown) [phenylpiracetam]
effect on MGL^Cys enzyme activity of Fn1419 (in words) (Fn1419 [1]; [6]): did not significantly affect enzyme activity

C/C=C/C=C/C(=O)[O-].[K+] [potassium sorbate]
product reduction rate (MGL^Cys activity of Fn1419) (Fn1419 [1]): 5.3%

Cc1ncc(CO)c(CO)c1O [pyridoxine-HCl]
effect on MGL^Cys enzyme activity of Fn1419 (in words) (Fn1419 [1]; [6]): did not significantly affect enzyme activity

Oc1cccc(O)c1O [pyrogallic acid]
product reduction rate (MGL^Cys activity of Fn1419) (Fn1419 [1]; [6]): 89.8%
IC50 (Fn1419 [4]): 57 µM

C[C@@H]1O[C@@H](OC[C@H]2O[C@@H](Oc3c(-c4ccc(O)c(O)c4)oc4cc(O)cc(O)c4c3=O)[C@H](O)[C@@H](O)[C@@H]2O)[C@H](O)[C@H](O)[C@H]1O [rutin]
product reduction rate (MGL^Cys activity of Fn1419) (Fn1419 [1]; [6]): 18.2%

CNCC(O)c1ccc(O)cc1 (stereo not shown) [synephrine]
product reduction rate (MGL^Cys activity of Fn1419) (Fn1419 [1]; [6]): 32.4%

O=C1O[C@H]([C@@H](O)CO)C(O)=C1O [vitamin C]
effect on MGL^Cys enzyme activity of Fn1419 (in words) (Fn1419 [1]; [6]): did not significantly affect enzyme activity

OC[C@@H](O)[C@H](O)[C@@H](O)CO [xylitol]
effect on MGL^Cys enzyme activity of Fn1419 (in words) (Fn1419 [1]; [6]): did not significantly affect enzyme activity

O=C(O)CCCCC1CCSS1 (stereo not drawn) [α-lipoic acid]
effect on MGL^Cys enzyme activity of Fn1419 (in words) (Fn1419 [1]; [6]): not significantly affected

chondroitin sulfate
product increase rate (MGL^Cys activity of Fn1419 enhanced) (Fn1419 [1]; [6]): 5.8%
